Results from article PMC8333062, “Chemical tools for epichaperome-mediated interactome dysfunctions of the central nervous system” (Nature Communications, 2021).
Several values for one entry are separate records, joined by “and”; a condition that tells them apart may be missing. Equal entries are not always repeated.

Experiments:
[1] = Plasma pharmacokinetics in human patients; type: in vivo; settings: order Patient#1, #2, #3, Mean
Description: For the PET study, two intravenous catheters (heparin-locked) were placed in the subject for radiopharmaceutical administration and for blood sampling. […] For [^124I]-PU-HZ151 injection and blood sampling, separate peripheral intravenous lines were placed. […] For quantification of radioprobe clearance and metabolism, plasma samples were radioassayed by well counter and radioHPLC using standard techniques. […] Well counting obtained a minimum of 10,000 counts per specimen correcting for background activity and radioactive decay from time of tracer injection. An I-124 standard was assayed on the well counter to obtain a calibration factor for converting sample scintillation count rates (in cpm) to millicurie (mCi) of activity. […] This value was multiplied by the patient body weight (g) to convert to standard uptake values (SUV) for comparison with tissue SUV values measured by PET, also calculated as the ID per mL tissue volume, normalized to patient body weight (g). Blood and plasma concentration data were separately plotted versus time.

[2] = test system: intracranial MDA-MB-468 tumors; experiment: PET of intracranial tumors; type: in vivo, mouse; design: radioactivity, Blood / radioactivity, Brain, normal / radioactivity, Tumor - intracranial: unit: %ID/g (percent injected dose per gram); settings: for radioactivity, Blood / radioactivity, Brain, normal / radioactivity, Tumor - intracranial: mean n=5
Description: We next investigated if the CNS-directed epichaperome probes detect epichaperome positivity and engage the target in brain tumors. MDA-MB-468 is a triple-negative breast cancer cell line, an aggressive breast cancer subtype with high propensity of metastasizing to the brain. We therefore initiated our studies with intracranial MDA-MB-468 tumors. We imaged the real-time whole-body distribution of [^124I]-labeled PU-HZ151 ([^124I]-PU-HZ151) between 1 h and 72 h to observe that PU-HZ151 was evenly distributed throughout the body with brain exposure equaling that of other tissues and non-metabolizing organs (see PET image at 1 h, Fig. 4a). A rapid clearance from HSP90 (present throughout the brain) but not epichaperome (present only in the tumor), provided unambiguous visualization and quantitation of epichaperome positivity through PET imaging. […] We also confirmed target positivity, and specific target and probe co-localization, through radiography and associated hematoxylin and eosin staining of brain tissue (Fig. 4c–e).
(§1) Orthotopic GBM xenografts in mice were established by injection of 5 × 10^5 cells in 2 μL PBS. For PET analyses, GSCs were injected into the striatum. Boreholes were made using a small hand drill. Mice were imaged with MRI (typically ~ 2–3 weeks after injection), and – if tumors were visible on MRI – they were imaged by micro-PET using the [^124I]-radiolabeled PU-HZ151. When mice started showing symptoms of progressing GBM, they received a microdose of [^124I]-PU-HZ151 and serial PET scans were performed at 20 mins, 6, 24, 48, 72, and 96 h post tracer administration using a dedicated small-animal PET scanner (Focus 120 microPET; Siemens Medical Solutions, USA, formerly Concorde Microsystems, Knoxville, TN). Mice were maintained under 2% isoflurane (Baxter Healthcare, Deerfield, IL) anesthesia in oxygen at 2 L min^−1 during the entire scanning period. To reduce the thyroid uptake of free iodide arising from metabolism of tracer, mice received 0.01% potassium iodide solution in their drinking water starting 48 h prior to tracer administration. For PET imaging, each mouse was administered [^124I]-PU-HZ151 (15 µCi g^−1, 3 µCi µL^−1 in saline, Hospira, 0.9% sodium chloride in water) via the tail vein or ip. Approximately 5 min prior to PET acquisition, mice were anesthetized by inhalation of a mixture of isoflurane (Baxter Healthcare, Deerfield, IL, USA; 2% isoflurane, 2 L min^−1 medical air) and positioned on the scanner bed. Anesthesia was maintained using a 1% isoflurane-O2 mixture. PET data for each mouse was recorded using static scans of 15 min and acquired at the indicated times post injection. Quantification and %ID g^−1 values were calculated by manually drawing regions of interests in three different frames and determining the average values using ASI Pro VM™ MicroPET Analysis software (Siemens Medical Solutions, Knoxville, TX).

lung carcinoma = experiment: PET in a lung cancer patient; type: in vivo, human
[3] = PET biodistribution in human patients; type: in vivo; settings: human, in vivo
Description: To evaluate the brain permeability of PU-HZ151 into the human brain, we produced the [^124I]-labeled derivative and performed serial PET imaging studies of human patients (n = 3; NCT03371420), and derived time-activity (i.e. standard uptake values (SUV) versus time post-administration) curves for the brain and various other tissues (Fig. 2b). PET data obtained for [^124I]-labeled PU-H71 (NCT01269593 and ref. [39]) were used for comparison. […] The AUC values recorded for [^124I]-PU-HZ151 in the human brain post-single injection are at par with what was measured in the human muscle and lung, supportive of uptake of PU-HZ151 into the human brain (Fig. 2b). Magnetic resonance imaging (MRI), by offering structural and soft tissue resolution, confirmed the presence of PU-HZ151 in the brain tissue (Fig. 2d). […] The secondary outcome of the trial was to measure adverse events following administration of the probe. Safety of [^124I]-PU-HZ151 in human subjects was assessed by evaluation of the incidence, nature, and severity of adverse events and serious adverse events (Supplementary Note 2).
[^124I]-PU-HZ151 and [^124I]-PU-H71 were synthesized in-house by the institutional cyclotron core facility at high specific activity. Analyses of the epichaperome by positron emission tomography (PET-CT) were performed as previously reported. In brief, research PET-CT was performed using an integrated PET-CT scanner (Discovery DSTE, GE Healthcare). CT scans for attenuation correction and anatomic coregistration were performed before tracer injection. Patients received 5 mCi of [^124I]-PU-HZ151 or [^124I]-PU-H71 by peripheral vein over 2 min. PET data were reconstructed using a standard ordered subset expected maximization iterative algorithm. Emission data were corrected for scatter, attenuation, and decay. PET scans were performed 0.5, 3, and 24 h after tracer administration. Numbers in the scale bar indicate upper and lower standardized uptake value (SUV) thresholds that define pixel intensity on PET images. SUV is a pixel value, derived from PET measurements of in vivo radioactivity, quantified as the fraction of the radioactive dose injected found in a cubic centimeter of measured tissue multiplied (ie, normalized) by patient body weight (grams). Maximum Intensity Projection (MIP) 3D images were constructed from the voxels with maximum intensity that fell in the way of parallel rays traced from the viewpoint to the plane of projection. At each pixel the highest data value encountered along the corresponding viewing ray was determined. MRI scans were obtained as part of routine clinical care using hardware and standard data acquisition and processing methods. MRI was obtained using a 1.5T magnet (Signa HDxt, GE Healthcare, Milwaukee, WI). […] Gadopentetate dimeglumine (Magnevist, HealthCare Pharmaceuticals Inc.) was injected though a peripheral angiocatheter at a standard dose (0.2 mL kg^−1 body weight, 40 mL, 2 cc s^−1). For precise localization of tracer uptake to specific neuroanatomical structures, PET brain images were fused to MRI brain images using the Integrated Registration application of the AW Suite software package (GE Healthcare, Milwaukee, Wisconsin, USA).

GBM#7 = experiment: PET of intracranial tumors; type: in vivo, mouse; settings: microdose iv
Description: (§2) To test if our probes can detect and differentiate in vivo the epichaperome-dependent tumors from those that are not, we next performed intracranial xenotransplantation of GSCs from epichaperome-high (GSC#8), -medium (GSC#7; GSC#19) and -negative (GSC#5) specimens. For comparison we used intracranially xenotransplanted MDA-MB-468 tumors (Fig. 7a).
as §1

GBM#8 = experiment: PET of intracranial tumors; type: in vivo, mouse; settings: microdose iv
Description: as §2, §1

GBM#5 = experiment: PET of intracranial tumors; type: in vivo, mouse; settings: microdose iv
Description: as §2, §1

GBM#19 = experiment: PET of intracranial tumors; type: in vivo, mouse; settings: microdose iv
Description: as §2, §1

[4] = Adverse events in human patients (NCT03371420); type: in vivo; settings: single microdose iv
[5] = test system: intracranial MDA-MB-468 tumors; experiment: PET of intracranial tumors; type: in vivo, mouse; design: unit: %ID/g (percent injected dose per gram); settings: 96 h, mean n=5

SMILES: CC(C)(C)CNCCn1c(Sc2cc3c(cc2[124I])OCO3)nc2c(N)ncnc21 [[124I]-PU-HZ151]
- 2nd Component Half-time [1]: 1.87 h and 2.97 h and 2.35 h
- 2nd Component Half-time ([1]; then text value): 1.87 h and 2.97 h and 2.2 h and 2.35 h and 2.35 ± 0.563 h
- area under the curve (AUC) ([1]; plasma): 0.0225 (%ID g-1)h and 0.0199 (%ID g-1)h and 0.0127 (%ID g-1)h and 0.0184 (%ID g-1)h
- radioactivity, Blood ([2]; 1 h): 1.8445
- radioactivity, Brain, normal ([2]; 1 h): 0.4287
- radioactivity, Tumor - intracranial ([2]; 1 h): 2.4287
- radioactivity, Blood ([2]; 2 h): 0.7280
- radioactivity, Brain, normal ([2]; 2 h): 0.0550
- radioactivity, Blood ([2]; 6 h): 0.2100
- radioactivity, Brain, normal ([2]; 6 h): 0.1400
- radioactivity, Tumor - intracranial ([2]; 6 h): 0.6541
- radioactivity, Blood ([2]; 24 h): 0.0110
- radioactivity, Brain, normal ([2]; 24 h): 0.0010
- radioactivity, Tumor - intracranial ([2]; 24 h): 0.1284
- radioactivity, Blood ([2]; 48 h): 0.0060
- radioactivity, Brain, normal ([2]; 48 h): 0.0000
- radioactivity, Tumor - intracranial ([2]; 48 h): 0.0885
- radioactivity, Blood ([2]; 72 h): 0.0040
- radioactivity, Brain, normal ([2]; 72 h): 0.0000
- radioactivity, Tumor - intracranial ([2]; 72 h): 0.0351
- radioactivity, Brain, normal ([2]; 96 h): 0.0000
- AUC^tumor/blood ([2]; PET, microdose iv): 1303
- radioactivity, Brain-gray (lung carcinoma; 0.5 h): 1.16 SUV
- radioactivity, Lung (lung carcinoma; 0.5 h): 0.56 SUV
- radioactivity, Muscle (lung carcinoma; 0.5 h): 0.72 SUV
- radioactivity, Tumor (lung carcinoma; 0.5 h): 2.52 SUV
- radioactivity, Brain-gray (lung carcinoma; 3 h): 0.41 SUV
- radioactivity, Lung (lung carcinoma; 3 h): 0.29 SUV
- radioactivity, Muscle (lung carcinoma; 3 h): 0.32 SUV
- radioactivity, Tumor (lung carcinoma; 3 h): 2.1 SUV
- radioactivity, Brain-gray (lung carcinoma; 24 h): 0.03 SUV
- radioactivity, Lung (lung carcinoma; 24 h): 0.07 SUV
- radioactivity, Muscle (lung carcinoma; 24 h): 0.09 SUV
- radioactivity, Tumor (lung carcinoma; 24 h): 0.79 SUV
- biological half-life in normal brain tissue [3]: less than 0.5 hours
- AUC^tumor/blood (GBM#7): 893
- AUC^tumor/blood (GBM#8): 80
- AUC^tumor/blood (GBM#5): 143
- AUC^tumor/blood (GBM#19): 444
- probe-related toxicity [4]: No radioiodinated probe-related toxicity was evident
- radioactivity, Blood [5]: 0.0050
